Assay results from patent US20060089378A1 (priority 2004, published 2006).
Read-outs that look alike come from different tables or passages of the source.

Key:
Cannabinoid CB2 Receptor = molecular target: T1, Cannabinoid CB2 Receptor (Homo sapiens, UniProt P34972); assay: Binding assay for CB2 agonists or inverse agonists (radioligand competition, membranes of transfected SK-N-MC cells); details: for inhibition at 0.2 µM: read-out: Cannabinoid CB2 Receptor Binding percent inhibition
T1 construct: expressed in transfected cells

Cannabinoid CB1 Receptor = molecular target: T2, Cannabinoid CB1 Receptor (Homo sapiens, UniProt P21554); assay: Binding assay for CB1 agonists or inverse agonists (radioligand competition, membranes of transfected SK-N-MC cells); details: for inhibition at 0.2 µM: read-out: Cannabinoid CB1 Receptor Binding percent inhibition
T2 construct: expressed in transfected cells

[1] = test concentration of 0.2 μM, compounds without an IC50 binding value

T1 sequence (P34972 whole entry): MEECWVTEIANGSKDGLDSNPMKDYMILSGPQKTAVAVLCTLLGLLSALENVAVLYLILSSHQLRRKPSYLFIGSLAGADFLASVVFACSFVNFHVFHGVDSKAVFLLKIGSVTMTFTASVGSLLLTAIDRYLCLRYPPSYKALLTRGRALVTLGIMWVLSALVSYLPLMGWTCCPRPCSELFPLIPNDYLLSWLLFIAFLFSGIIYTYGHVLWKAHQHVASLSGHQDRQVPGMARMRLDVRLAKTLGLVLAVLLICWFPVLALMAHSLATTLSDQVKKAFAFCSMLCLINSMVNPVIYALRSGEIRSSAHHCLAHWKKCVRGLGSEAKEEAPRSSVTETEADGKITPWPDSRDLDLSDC
T2 sequence (P21554 whole entry): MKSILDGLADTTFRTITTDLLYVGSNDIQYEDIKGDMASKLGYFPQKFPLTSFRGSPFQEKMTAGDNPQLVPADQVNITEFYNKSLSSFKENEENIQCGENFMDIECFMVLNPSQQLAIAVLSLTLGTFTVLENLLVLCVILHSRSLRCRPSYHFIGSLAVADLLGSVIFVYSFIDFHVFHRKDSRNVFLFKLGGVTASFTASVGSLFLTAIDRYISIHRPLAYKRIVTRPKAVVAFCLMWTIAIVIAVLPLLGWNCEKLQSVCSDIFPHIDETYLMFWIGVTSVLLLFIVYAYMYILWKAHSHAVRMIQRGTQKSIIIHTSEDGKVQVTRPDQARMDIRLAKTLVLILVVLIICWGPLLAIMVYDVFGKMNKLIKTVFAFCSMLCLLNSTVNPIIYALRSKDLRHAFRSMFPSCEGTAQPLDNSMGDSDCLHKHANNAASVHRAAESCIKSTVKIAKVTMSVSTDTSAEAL

Row | SMILES | inhibition at 0.2 µM (Cannabinoid CB2 Receptor; [1]) [%] | inhibition at 0.2 µM (Cannabinoid CB1 Receptor; [1]) [%] | other results
1 | C[C@H](NC(=O)c1nn(-c2ccc(Cl)cc2Cl)c2c1CN(C(=O)OC(C)(C)C)C/C2=C\c1ccc(F)cc1)C1CCCCC1 [Cpd 4, (7E)-3-[(1S)-1-cyclohexyl-ethylcarbamoyl]-1-(2,4-dichloro-phenyl)-7-(4-fluoro-benzylidene)-1,4,6,7-tetrahydro-pyrazolo[4,3-c]pyridine-5-carboxylic acid tert-butyl ester] | – | – | inhibition at 0.2 µM (Cannabinoid CB2 Receptor): 9%; inhibition at 0.2 µM (Cannabinoid CB1 Receptor): 48%
2 | C[C@H](NC(=O)c1nn(-c2ccc(Cl)cc2Cl)c2c1CNC/C2=C\c1ccc(F)cc1)C1CCCCC1 [Cpd 5, (7E)-1-(2,4-dichloro-phenyl)-7-(4-fluoro-benzylidene)-4,5,6,7-tetrahydro-1H-pyrazolo[4,3-c]pyridine-3-carboxylic acid [(1S)-1-cyclohexyl-ethyl]-amide] | – | – | inhibition at 0.2 µM (Cannabinoid CB2 Receptor): 8%; inhibition at 0.2 µM (Cannabinoid CB1 Receptor): 48%
3 | COc1ccc(/C=C2\CN(S(=O)(=O)N(C)C)Cc3c(C(=O)N[C@H](C)c4ccccc4)nn(-c4ccc(Cl)cc4Cl)c32)cc1 [Cpd 47] | – | – | Cannabinoid CB2 Receptor Binding percent inhibition (Cannabinoid CB2 Receptor; [1]): 66%; IC50 (Cannabinoid CB1 Receptor): 2 nM
4 | COc1ccc(/C=C2\CN(CC(=O)O)Cc3c(C(=O)N[C@H](C)c4ccccc4)nn(-c4ccc(Cl)cc4Cl)c32)cc1 [Cpd 51, (7E)-[1-(2,4-dichloro-phenyl)-7-(4-methoxy-benzylidene)-3-[(1R)-1-phenyl-ethylcarbamoyl]-1,4,6,7-tetrahydro-pyrazolo[4,3-c]pyridin-5-yl]-acetic acid] | 19 | 49 | –
5 | C[C@@H](NC(=O)c1nn(-c2ccc(Cl)cc2Cl)c2c1CN(CC(=O)O)C/C2=C\c1ccc(F)cc1)c1ccccc1 [Cpd 52, (7E)-[1-(2,4-dichloro-phenyl)-7-(4-fluoro-benzylidene)-3-[(1R)-1-phenyl-ethylcarbamoyl]-1,4,6,7-tetrahydro-pyrazolo[4,3-c]pyridin-5-yl]-acetic acid] | 7 | 38 | –
6 | CC(NC(=O)c1nn(-c2ccc(Cl)cc2)c2c1CN(C(=O)OC(C)(C)C)C/C2=C\c1ccc(F)cc1)c1ccccn1 (stereo not shown) [Cpd 73, (7E)-1-(4-chloro-phenyl)-7-(4-fluoro-benzylidene)-3-(1-pyridin-2-yl-ethylcarbamoyl)-1,4,6,7-tetrahydro-pyrazolo[4,3-c]pyridine-5-carboxylic acid tert-butyl ester] | 6 | 50 | –
7 | CC(C)(C)OC(=O)N1C/C(=C\c2ccc(F)cc2)c2c(c(C(=O)NN3CCCCC3)nn2-c2ccc(Cl)cc2)C1 [Cpd 74, (7E)-1-(4-chloro-phenyl)-7-(4-fluoro-benzylidene)-3-(piperidin-1-ylcarbamoyl)-1,4,6,7-tetrahydro-pyrazolo[4,3-c]pyridine-5-carboxylic acid tert-butyl ester] | 3 | 39 | –
8 | CC(=O)N1C/C(=C\c2ccc(F)cc2)c2c(c(C(=O)NN3CCCCC3)nn2-c2ccc(Cl)cc2)C1 [Cpd 81, (7E)-5-acetyl-1-(4-chloro-phenyl)-7-(4-fluoro-benzylidene)-4,5,6,7-tetrahydro-1H-pyrazolo[4,3-c]pyridine-3-carboxylic acid piperidin-1-ylamide] | 22 | 10 | –
9 | COC(=O)N1C/C(=C\c2ccc(F)cc2)c2c(c(C(=O)NN3CCCCC3)nn2-c2ccc(Cl)cc2)C1 [Cpd 82, (7E)-1-(4-chloro-phenyl)-7-(4-fluoro-benzylidene)-3-(piperidin-1-ylcarbamoyl)-1,4,6,7-tetrahydro-pyrazolo[4,3-c]pyridine-5-carboxylic acid methyl ester] | – | – | Cannabinoid CB2 Receptor Binding percent inhibition (Cannabinoid CB2 Receptor; [1]): 32%; IC50 (Cannabinoid CB1 Receptor): 60 nM
10 | CCNC(=O)N1C/C(=C\c2ccc(F)cc2)c2c(c(C(=O)NN3CCCCC3)nn2-c2ccc(Cl)cc2)C1 [Cpd 83, (7E)-1-(4-chloro-phenyl)-7-(4-fluoro-benzylidene)-1,4,6,7-tetrahydro-pyrazolo[4,3-c]pyridine-3,5-dicarboxylic acid 5-ethylamide 3-piperidin-1-ylamide] | 19 | 32 | –
11 | CC(C)(C)OC(=O)N1C/C(=C\c2ccc(F)cc2)c2c(c(C(=O)NN3CC4CCCC4C3)nn2-c2ccc(Cl)cc2)C1 (stereo not shown) [Cpd 84, (7E)-1-(4-chloro-phenyl)-7-(4-fluoro-benzylidene)-3-(hexahydro-cyclopenta[c]pyrrol-2-ylcarbamoyl)-1,4,6,7-tetrahydro-pyrazolo[4,3-c]pyridine-5-carboxylic acid tert-butyl ester] | 12 | 30 | –
12 | O=C(NN1CC2CCCC2C1)c1nn(-c2ccc(Cl)cc2)c2c1CNC/C2=C\c1ccc(F)cc1 (stereo not shown) [Cpd 85, (7E)-1-(4-chloro-phenyl)-7-(4-fluoro-benzylidene)-4,5,6,7-tetrahydro-1H-pyrazolo[4,3-c]pyridine-3-carboxylic acid (hexahydro-cyclopenta[c]pyrrol-2-yl)-amide] | 11 | 45 | –
13 | CC(=O)N1C/C(=C\c2ccc(F)cc2)c2c(c(C(=O)NN3CC4CCCC4C3)nn2-c2ccc(Cl)cc2)C1 (stereo not shown) [Cpd 86, (7E)-5-acetyl-1-(4-chloro-phenyl)-7-(4-fluoro-benzylidene)-4,5,6,7-tetrahydro-1H-pyrazolo[4,3-c]pyridine-3-carboxylic acid (hexahydro-cyclopenta[c]pyrrol-2-yl)-amide] | 24 | 46 | –
14 | CC(C)(C)OC(=O)N1C/C(=C\c2ccc(F)cc2)c2c(c(C(=O)NN3CC4CCCC4C3)nn2-c2ccc(Cl)cc2Cl)C1 (stereo not shown) [Cpd 88, (7E)-1-(2,4-dichloro-phenyl)-7-(4-fluoro-benzylidene)-3-(hexahydro-cyclopenta[c]pyrrol-2-ylcarbamoyl)-1,4,6,7-tetrahydro-pyrazolo[4,3-c]pyridine-5-carboxylic acid tert-butyl ester] | 0 | 53 | –
15 | COc1ccc(/C=C2\CN(C(=O)OC(C)(C)C)Cc3c(C(=O)NN4CC5CCCC5C4)nn(-c4ccc(Cl)cc4Cl)c32)cc1 (stereo not shown) [Cpd 94, (7E)-1-(2,4-dichloro-phenyl)-3-(hexahydro-cyclopenta[c]pyrrol-2-ylcarbamoyl)-7-(4-methoxy-benzylidene)-1,4,6,7-tetrahydro-pyrazolo[4,3-c]pyridine-5-carboxylic acid tert-butyl ester] | 38 | 70 | –
16 | CCNC(=O)N1C/C(=C\c2ccc(OC)cc2)c2c(c(C(=O)NN3CC4CCCC4C3)nn2-c2ccc(Cl)cc2Cl)C1 (stereo not shown) [Cpd 101, (7E)-1-(2,4-dichloro-phenyl)-7-(4-methoxy-benzylidene)-1,4,6,7-tetrahydro-pyrazolo[4,3-c]pyridine-3,5-dicarboxylic acid 5-ethylamide 3-[(hexahydro-cyclopenta[c]pyrrol-2-yl)-amide]] | 15 | 68 | –
17 | CCCCn1nc(C(=O)NN2CCCCC2)c2c1CCN(C(=O)OC)C2 [Cpd 102, 1-butyl-3-(piperidin-1-ylcarbamoyl)-1,4,6,7-tetrahydro-pyrazolo[4,3-c]pyridine-5-carboxylic acid methyl ester] | 23 | – | –
18 | CC12CCC(C1)C(C)(C)C2NC(=O)c1nn(Cc2ccccc2)c2c1CN(C(=O)OCc1ccccc1)CC2 (stereo not shown) [Cpd 108, 1-benzyl-3-(1,3,3-trimethyl-bicyclo[2.2.1]hept-2-ylcarbamoyl)-1,4,6,7-tetrahydro-pyrazolo[4,3-c]pyridine-5-carboxylic acid benzyl ester] | – | – | IC50 (Cannabinoid CB2 Receptor): 2 nM; IC50 (Cannabinoid CB1 Receptor): 200 nM
19 | CCC(=O)N1CCc2c(c(C(=O)NC3C4(C)CCC(C4)C3(C)C)nn2Cc2ccccc2)C1 (stereo not shown) [Cpd 110, 1-benzyl-5-propionyl-4,5,6,7-tetrahydro-1H-pyrazolo[4,3-c]pyridine-3-carboxylic acid (1,3,3-trimethyl-bicyclo[2.2.1]hept-2-yl)-amide] | – | – | IC50 (Cannabinoid CB2 Receptor): 20 nM; IC50 (Cannabinoid CB1 Receptor): 500 nM
20 | CC12CCC(C1)C(C)(C)C2NC(=O)c1nn(C2CCCCC2)c2c1CN(C(=O)OCc1ccccc1)CC2 (stereo not shown) [Cpd 121, 1-cyclohexyl-3-(1,3,3-trimethyl-bicyclo[2.2.1]hept-2-ylcarbamoyl)-1,4,6,7-tetrahydro-pyrazolo[4,3-c]pyridine-5-carboxylic acid benzyl ester] | – | – | IC50 (Cannabinoid CB2 Receptor): 90 nM; IC50 (Cannabinoid CB1 Receptor): 1500 nM
21 | CCOC(=O)CN1CCc2c(c(C(=O)NC3C4(C)CCC(C4)C3(C)C)nn2C2CCCCC2)C1 (stereo not shown) [Cpd 126, [1-cyclohexyl-3-(1,3,3-trimethyl-bicyclo[2.2.1]hept-2-ylcarbamoyl)-1,4,6,7-tetrahydro-pyrazolo[4,3-c]pyridin-5-yl]-acetic acid ethyl ester] | 49 | – | IC50 (Cannabinoid CB1 Receptor; human CB1, SK-N-MC cell membranes, calculated by linear regression from percent inhibition at various concentrations, read-out: Cannabinoid CB1 Receptor Binding IC50): 1200 nM
22 | CC(C)(C)OC(=O)N1CCc2c(c(C(=O)NC3C4CC5CC(C4)CC3C5)nn2C2CCCCC2)C1 (stereo not shown) [Cpd 130, 3-(adamantan-2-ylcarbamoyl)-1-cyclohexyl-1,4,6,7-tetrahydro-pyrazolo[4,3-c]pyridine-5-carboxylic acid tert-butyl ester] | – | – | IC50 (Cannabinoid CB1 Receptor): 60 nM
23 | CC(C)(C)OC(=O)N1C/C(=C\c2ccc(F)cc2)c2c(c(C(=O)N3CCCCC3)nn2-c2ccc(Cl)cc2Cl)C1 [Cpd 135, (7E)-1-(2,4-dichloro-phenyl)-7-(4-fluoro-benzylidene)-3-(piperidine-1-carbonyl)-1,4,6,7-tetrahydro-pyrazolo[4,3-c]pyridine-5-carboxylic acid tert-butyl ester] | 28 | 40 | –
24 | CC(=O)N1C/C(=C\c2ccc(F)cc2)c2c(c(C(=O)N(C(C)=O)N3CC4CCCC4C3)nn2-c2ccc(Cl)cc2)C1 (stereo not shown) [Cpd 136, (7E)-5-acetyl-1-(4-chloro-phenyl)-7-(4-fluoro-benzylidene)-4,5,6,7-tetrahydro-1H-pyrazolo[4,3-c]pyridine-3-carboxylic acid acetyl-(hexahydro-cyclopenta[c]pyrrol-2-yl)-amide] | 22 | 39 | –
